Laboratory results reported in patent US10632054B2, “Method for hair frizz reduction” (The Procter & Gamble Company, priority 2015, dated 2020).

Columns and labels:
[1] = Expert rating of hair switches for frizz, clean feel and greasy feel; settings: 1% in leave-on composition
Method: Additional leave-on treatment compositions are prepared (Tables 1 and 2) according to the procedure described above, which are used to treat hair switches using the procedure described above (amount of 0.10 g of composition per g of hair). The switch is kept at high humidity (above 85%) for 2 hours. Then, ten experts are asked to rate each hair switch in terms of frizz, clean feel, and greasy feel, based on a 5 point scale, 5 being the highest and 1 being the lowest rating. Acceptable values are:
For frizz, less than 2 (lower number corresponds to less frizz);
For no greasy feel less than 3, (lower number corresponds to less greasy feel), and
For clean feel greater than 3 (higher number corresponds to cleaner feel).

[2] = Leave-on treatment, % water reduction by DVS in damaged hair; settings: 10% propylene glycol
Method: An amount of 25-30 mg of hair with length of approximately 1 cm is weighed and hold for equilibration at 0% RH for 16 hours. After the 16-hour period, the RH is increased to 10% and maintained at this level for 6 hours. Then, the RH is increased by 10% after every 6 hours interval until it reaches 90% RH. The % water reduction is calculated as follows:
A=Amount of water absorbed by the hair treated with composition containing the Moisture Control Material

[3] = Soaking treatment, moisture uptake by DVS; settings: pH 4.2, 40 deg C., at 90% RH
Method: The Moisture Control Material is added into a 50:50 ethanol:water solvent at a concentration of 2% w/w and mixed until completely dissolved. The solution pH is adjusted with sodium hydroxide (50% w/w) to a final pH of 4.2. The soaking solution is kept at 40 deg C. for 2 hrs. until a uniform composition is obtained.
One hair switch of natural virgin brown hair is placed in 200 ml of this solution for 2 hours in an oven set at 40° C. After the 2-hour period, the hair is removed, air dried and then tested for moisture uptake using DVS. For the control experiment, a natural brown virgin hair switch of the same weight is placed in a 50:50 ethanol:water solvent and treated under identical conditions.
The % water reduction is calculated as follows: […]
Hair soaked in active solution of pH 4.2 for different interval of time from 10 min to 2 hrs at 40 deg C. Hair Switches were air dried and prepared for % water reduction measurement using DVS vs. control (no active).

SMILES	Hair switch rating result in words (frizz, clean feel, greasy feel) [1]	other results
O=C(O)c1ccc(O)cc1O [2,4-Dihydroxybenzoic acid]	provide frizz protection with clean feel and without greasy feel negative	
CCCCCCCCC(CO)CCCCCC (stereo not shown) [2-Hexyl-1-decanol]	provide frizz protection with clean feel and without greasy feel negative	
O=C(OCCO)c1ccccc1O [2-Hydroxyethyl salicylate]	provide frizz protection with clean feel and without greasy feel negative	
O=S(=O)(O)c1ccc(O)cc1 [4-Hydroxybenzenesulphonic acid]	provide frizz protection with clean feel and without greasy feel negative	
O=C(O)c1cc(Cl)ccc1O [5-Chlorosalicylic acid]	provide frizz protection with clean feel and without greasy feel negative	increase in % water reduction as measured by DVS versus without propylene glycol [2]: ~4 times; % water reduction vs. control ([3]; 10 min soaking): 9.6%; % water reduction vs. control ([3]; 20 mins soaking): 14.8%; % water reduction vs. control ([3]; 30 mins soaking): 19%; % water reduction vs. control ([3]; 1 hr soaking): 26%; % water reduction vs. control ([3]; 2 hr soaking): 30%
CC(C)CCCCCCCCCCCCCCCOC(=O)CCCCCCCCCCCCCCC(C)C [Isostearyl isostearate]	provide frizz protection with clean feel and without greasy feel negative	
O=C(O)c1ccccc1O [Salicylic acid]	provide frizz protection with clean feel and without greasy feel negative	
